The source of these data is ChEMBL document CHEMBL4420076, “Amylin and calcitonin receptor agonist” (2017).

Data set [1] can be described thus: Solubility in 100 mM bistrispropane buffer at pH 6.0 incubated for 18 hrs by UPLC analysis. It is filed as physicochemical.
In data set [2] the target is T1, Calcitonin receptor (Homo sapiens, UniProt P30988).
T1 sequence (P30988 whole entry): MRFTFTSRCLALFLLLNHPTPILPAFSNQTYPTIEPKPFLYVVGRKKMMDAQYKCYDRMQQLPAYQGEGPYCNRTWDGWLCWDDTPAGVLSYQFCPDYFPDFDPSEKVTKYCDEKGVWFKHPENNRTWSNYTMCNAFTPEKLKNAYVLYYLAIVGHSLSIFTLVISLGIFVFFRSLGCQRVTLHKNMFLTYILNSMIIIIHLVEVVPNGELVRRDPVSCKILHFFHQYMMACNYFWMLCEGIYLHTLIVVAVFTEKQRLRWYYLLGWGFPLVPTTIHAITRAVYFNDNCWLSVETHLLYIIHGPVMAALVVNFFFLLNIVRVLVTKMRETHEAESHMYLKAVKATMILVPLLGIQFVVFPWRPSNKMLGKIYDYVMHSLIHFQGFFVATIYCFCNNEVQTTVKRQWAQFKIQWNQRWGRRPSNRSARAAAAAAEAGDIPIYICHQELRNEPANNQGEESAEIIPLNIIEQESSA
Description: Agonist activity at human calcitonin receptor expressed in BHK570 cells assessed as increase in intracellular cAMP concentration incubated for 3 hrs in absence of albumin by CRE luciferase reporter gene assay. In kind it is functional, cell-based.

The nature of data set [3]: Solubility in 100 mM bistrispropane buffer at pH 7.5 incubated for 18 hrs by UPLC analysis. It is filed as physicochemical.
Data set [4] has as its target T2, Amylin receptor AMY3; CALCR/RAMP3 (Homo sapiens, UniProt O60896+P30988).
T2 sequence (P30988 whole entry): T1 sequence (P30988 whole entry)
T2 sequence (O60896 whole entry): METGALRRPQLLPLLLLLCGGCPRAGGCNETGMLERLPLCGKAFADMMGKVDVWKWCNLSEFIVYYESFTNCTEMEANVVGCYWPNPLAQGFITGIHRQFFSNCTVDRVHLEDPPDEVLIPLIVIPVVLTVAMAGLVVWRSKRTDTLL
Briefly: Agonist activity at human amylin receptor expressed in BHK570 cells co-expressing RAMP3 assessed as increase in intracellular cAMP concentration incubated for 3 hrs in absence of albumin by CRE luciferase reporter gene assay. In kind it is functional, cell-based.

Data set [5] is described as follows: Stability in pH 7.5 buffer assessed as lag time for fibril formation at 1 uM by Thioflavin T based fluorescence assay. It is filed as physicochemical. As to conditions: pH 7.5, 1 µM.
The nature of data set [6]: Solubility in 100 mM glycylglycine buffer at pH 3.0 incubated for 18 hrs by UPLC analysis. In kind it is physicochemical.
The nature of data set [7]: Solubility in 100 mM glycylglycine buffer at pH 5.0 incubated for 18 hrs by UPLC analysis. It is filed as physicochemical.
In data set [8] the target is T3, Amylin receptor AMY3; CALCR/RAMP3 (Rattus norvegicus, UniProt P32214+Q9JJ73).
T3 sequence (P32214 whole entry): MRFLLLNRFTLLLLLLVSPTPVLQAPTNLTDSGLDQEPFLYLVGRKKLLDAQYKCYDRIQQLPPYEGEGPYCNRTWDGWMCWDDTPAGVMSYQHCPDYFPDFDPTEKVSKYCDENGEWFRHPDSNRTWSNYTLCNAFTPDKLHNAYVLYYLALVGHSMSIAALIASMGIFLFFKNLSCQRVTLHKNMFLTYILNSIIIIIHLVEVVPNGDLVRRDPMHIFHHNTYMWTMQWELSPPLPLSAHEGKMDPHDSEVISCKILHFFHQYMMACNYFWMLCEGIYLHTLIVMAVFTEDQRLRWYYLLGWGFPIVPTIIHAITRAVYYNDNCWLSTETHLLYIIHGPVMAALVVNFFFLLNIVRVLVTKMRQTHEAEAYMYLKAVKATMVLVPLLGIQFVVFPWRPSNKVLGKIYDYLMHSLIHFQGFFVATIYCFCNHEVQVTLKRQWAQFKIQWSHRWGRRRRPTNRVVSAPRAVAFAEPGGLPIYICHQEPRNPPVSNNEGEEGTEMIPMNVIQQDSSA
T3 sequence (Q9JJ73 whole entry): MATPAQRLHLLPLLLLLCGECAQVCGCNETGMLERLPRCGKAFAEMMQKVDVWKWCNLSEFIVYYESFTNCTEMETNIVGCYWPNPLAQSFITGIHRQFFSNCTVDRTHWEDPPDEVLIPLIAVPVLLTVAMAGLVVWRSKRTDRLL
Briefly: Displacement of [125I]-labeled rat amylin from rat amylin receptor expressed in BHK tkts13 cell membranes co-expressing RAMP3 incubated for 120 mins by scintillation proximity assay. (Loss of bound radioactivity is the signal in a displacement assay; it reports binding, not function.)

Data set [9] is described as follows: Solubility in 100 mM glycylglycine buffer at pH 4.0 incubated for 18 hrs by UPLC analysis. It is filed as physicochemical.
Data set [10] in a line: Solubility in 100 mM bistrispropane buffer at pH 7.0 incubated for 18 hrs by UPLC analysis. In kind it is physicochemical.
The nature of data set [11]: Stability in pH 7.5 buffer assessed as compound recovery at 1 uM by Thioflavin T based fluorescence assay. In kind it is physicochemical. Particulars: read-out: Drug recovery.
Data set [12] can be described thus: Solubility in 100 mM bistrispropane buffer at pH 6.5 incubated for 18 hrs by UPLC analysis. It is filed as physicochemical.
The target in data set [13] is T2, Amylin receptor AMY3; CALCR/RAMP3. Description: Displacement of [125I]-labeled rat amylin from human amylin receptor expressed in BHK570 cell membranes co-expressing RAMP3 incubated for 120 mins by scintillation proximity assay.
Data set [14] is described as follows: Solubility in 100 mM bistrispropane buffer at pH 8.0 incubated for 18 hrs by UPLC analysis. In kind it is physicochemical.
For data set [15], the target named is T1, Calcitonin receptor. Briefly: Displacement of [125I]-labeled human calcitonin from human calcitonin receptor expressed in BHK tkts13 cell membranes incubated for 1 hr by scintillation proximity assay.
For data set [16], the target named is T2, Amylin receptor AMY3; CALCR/RAMP3. Description: Agonist activity at human amylin receptor expressed in BHK570 cells co-expressing RAMP3 assessed as increase in intracellular cAMP concentration incubated for 3 hrs in presence of 10% FBS by CRE luciferase reporter gene assay. It is filed as functional, cell-based.
Data set [17] concerns Rattus norvegicus. Briefly: Reduction in food intake in Sprague-Dawley rat at 3 nmol/kg measured 24 to 48 hrs post dose relative to control. In kind it is functional. On the set-up: scale not given: the % may be the effect or the level left.
The target in data set [18] is T1, Calcitonin receptor. Briefly: Agonist activity at human calcitonin receptor expressed in BHK570 cells assessed as increase in intracellular cAMP concentration incubated for 3 hrs in presence of 10% FBS by CRE luciferase reporter gene assay. It is filed as functional, cell-based. For orientation: In a reporter assay the amount or activity of a reporter protein is the signal.

For data set [19], the system named is Rattus norvegicus. Briefly: Reduction in food intake in Sprague-Dawley rat at 3 nmol/kg measured 0 to 24 hrs post dose relative to control. On the set-up: scale not given: the % may be the effect or the level left. In kind it is functional.
The target in data set [20] is T2, Amylin receptor AMY3; CALCR/RAMP3. Description: Displacement of [125I]-labeled rat amylin from human amylin receptor expressed in BHK tkts13 whole cells co-expressing RAMP3 incubated for 60 mins by scintillation proximity assay. In kind it is cell-based.

Broadly, the solubility is the dissolved amount per volume that the medium holds. One may read the EC50 as the concentration at which the effect is half-maximal. A word on the IC50: it is the concentration that inhibits the measured activity by half.

Numbered stars: 1 amine (or outer) side, 2 acyl side, 3 side chain; on linkers, the order of the positions; unused ones are H or OH. Peptide text beside a SMILES is read from it. * marks the point of attachment. C20 diacid = O=C(O)CCCCCCCCCCCCCCCCCCC(=O)*; C18 diacid = O=C(O)CCCCCCCCCCCCCCCCC(=O)*; γGlu = O=C(O)[C@H](CCC(=O)[*:2])N[*:1]; C14 diacid = O=C(O)CCCCCCCCCCCCC(=O)*

Turning to `CC(C)C[C@H](NC(=O)[C@H](C)NC(=O)[C@H](C)NC(=O)[C@@H](NC(=O)[C@H](CO)NC(=O)[C@H](CC(C)C)NC(=O)[C@H](CCC(=O)O)NC(=O)[C@H](CO)NC(=O)[C@H](C)NC(=O)CC[C@H](NC(=O)CCCCCCCCCCCCC(=O)O)C(=O)O)[C@@H](C)O)C(=O)NCC(=O)N[C@@H](CCCNC(=N)N)C(=O)N[C@@H](CC(C)C)C(=O)N[C@@H](CO)C(=O)N[C@@H](C)C(=O)N[C@@H](CCC(=O)O)C(=O)N[C@@H](CC(C)C)C(=O)N[C@@H](Cc1cnc[nH]1)C(=O)N[C@@H](CCC(=O)O)C(=O)N[C@@H](CC(C)C)C(=O)N[C@@H](C)C(=O)N[C@H](C(=O)N[C@@H](CC(C)C)C(=O)N1CCC[C@H]1C(=O)N[C@@H](CCCNC(=N)N)C(=O)N[C@H](C(=O)N[C@@H](CCC(=O)O)C(=O)N[C@H](C(=O)NCC(=O)N[C@@H](CO)C(=O)NCC(=O)N[C@@H](CO)C(=O)N1CCC[C@H]1C(N)=O)[C@@H](C)O)[C@@H](C)O)[C@@H](C)O` ({C14 diacid-γGlu}-ASELSTAALGRLSAELHELATLPRTETGSGSP-NH2), the solubility at 18 h in data set [1], in data set [3], in data set [6], in [7], in data set [9] and in [10] was no less than 200 µM in each case. The solubility at 18 h in data set [12] and in data set [14] was no less than 200 µM throughout. For the same molecule, the EC50 is 0.004 nM on Calcitonin receptor [2] and 0.006 nM in data set [4]. In data set [5], the Time was greater than 45 h. Also, the IC50 is 0.122 nM in data set [8], 0.054 nM in [13] and 0.023 nM on Calcitonin receptor [15]. Also, the remaining at 1 µM in [11] was found to be 98%.
Turning to `CC(C)C[C@H](NC(=O)[C@H](C)NC(=O)[C@H](C)NC(=O)[C@@H](NC(=O)[C@H](CO)NC(=O)[C@H](CC(C)C)NC(=O)[C@H](CCC(=O)O)NC(=O)[C@H](CO)NC(=O)[C@H](C)NC(=O)CCCCCCCCCCCCCCCCC(=O)O)[C@@H](C)O)C(=O)NCC(=O)N[C@@H](CCCNC(=N)N)C(=O)N[C@@H](CC(C)C)C(=O)N[C@@H](CO)C(=O)N[C@@H](C)C(=O)N[C@@H](CCC(=O)O)C(=O)N[C@@H](CC(C)C)C(=O)N[C@@H](Cc1cnc[nH]1)C(=O)N[C@@H](CCC(=O)O)C(=O)N[C@@H](CC(C)C)C(=O)N[C@@H](C)C(=O)N[C@H](C(=O)N[C@@H](CC(C)C)C(=O)N1CCC[C@H]1C(=O)N[C@@H](CCCNC(=N)N)C(=O)N[C@H](C(=O)N[C@@H](CCC(=O)O)C(=O)N[C@H](C(=O)NCC(=O)N[C@@H](CO)C(=O)NCC(=O)N[C@@H](CO)C(=O)N1CCC[C@H]1C(N)=O)[C@@H](C)O)[C@@H](C)O)[C@@H](C)O` ({C18 diacid}-ASELSTAALGRLSAELHELATLPRTETGSGSP-NH2), the EC50 is 0.009 nM in data set [16], 0.017 nM at Calcitonin receptor [2], 0.018 nM in data set [4] and 0.008 nM at Calcitonin receptor [18]. The solubility at 18 h in data set [1], in [3], in data set [6], in data set [7], in [9] and in data set [10] was no less than 200 µM in each case. In addition, the solubility at 18 h in [12] and in data set [14] was no less than 200 µM each time. Moreover, the Activity is reported as 11% in the data set with Rattus norvegicus [17] and 52% in the data set with Rattus norvegicus [19]. In addition, the IC50 in data set [8] is 0.063 nM; in data set [13] it was 0.077 nM; at Calcitonin receptor [15] it was 0.034 nM.
Regarding `CC(C)C[C@H](NC(=O)[C@H](C)NC(=O)[C@H](C)NC(=O)[C@@H](NC(=O)[C@H](CO)NC(=O)[C@H](CC(C)C)NC(=O)[C@H](CCC(=O)O)NC(=O)[C@H](CO)NC(=O)[C@H](C)NC(=O)CC[C@H](NC(=O)CCCCCCCCCCCCCCCCCCC(=O)O)C(=O)O)[C@@H](C)O)C(=O)NCC(=O)N[C@@H](Cc1cnc[nH]1)C(=O)N[C@@H](CC(C)C)C(=O)N[C@@H](CO)C(=O)N[C@@H](C)C(=O)N[C@@H](CCC(=O)O)C(=O)N[C@@H](CC(C)C)C(=O)N[C@@H](Cc1cnc[nH]1)C(=O)N[C@@H](CCC(=O)O)C(=O)N[C@@H](CC(C)C)C(=O)N[C@@H](C)C(=O)N[C@H](C(=O)N[C@@H](CC(C)C)C(=O)N1CCC[C@H]1C(=O)N[C@@H](CCCNC(=N)N)C(=O)N[C@H](C(=O)N[C@@H](CCC(=O)O)C(=O)N[C@H](C(=O)NCC(=O)N[C@@H](CO)C(=O)NCC(=O)N[C@@H](CO)C(=O)N1CCC[C@H]1C(N)=O)[C@@H](C)O)[C@@H](C)O)[C@@H](C)O` ({C20 diacid-γGlu}-ASELSTAALGHLSAELHELATLPRTETGSGSP-NH2), the solubility at 18 h in data set [1], in [3], in data set [6], in [7], in [9] and in [10] was no less than 200 µM each time. The solubility at 18 h in [12] and in data set [14] was no less than 200 µM in each case. The Activity came to 11% with Rattus norvegicus [17] and 17% with Rattus norvegicus [19]. For the same molecule, the figures for the concentration giving a half-maximal response (EC50) (at Calcitonin receptor [2]; in [4]; at Calcitonin receptor [18]) were 0.012 nM, 0.017 nM and 0.048 nM, respectively. In addition, the IC50 is 1.53 nM in [8], 0.565 nM in data set [13], 0.697 nM in data set [20] and 0.097 nM on Calcitonin receptor [15].
